Results as given in US20190328822A1, “METHODS AND COMPOSITIONS FOR PREVENTING OR TREATING DOMINANT OPTIC ATROPHY” (STEALTH BIOTHERAPEUTICS CORP, priority 2014, published 2019).
Non-standard residues stand in square brackets, D forms with d. No end group written: not given here.

Legend:
[1] = test system: plasma membrane of several mammalian cell types; settings: energy-independent manner; cited from earlier work
LHON patients [2] = settings: cited from earlier work
LHON patients [3] = settings: 85 LHON patients, 900 mg/d for 24 weeks; cited from earlier work
[4] = cited from earlier work
reactive oxygen species = settings: cited from earlier work
mu-opioid receptor = mu-opioid receptor (Homo sapiens, UniProt P35372); test: mu-opioid receptor agonist activity
[5] = test system: Human subjects at risk of having, suspected of having, or diagnosed as having DOA; test: Treatment and prevention of DOA in human subjects, ophthalmic solution (Example 2); format: in vivo; settings: 1 drop of 1%, 3%, or 5% ophthalmic solution three times per day for 18 months
Experimental: Human subjects at risk of having (e.g., diagnosed with an OPA1 gene mutation, but who are not yet symptomatic, e.g., no visual impairment), suspected of having, or diagnosed as having DOA are administered a therapeutically effective amount of an aromatic-cationic peptide of the present technology, such as D-Arg-2′,6′-Dmt-Lys-Phe-NH2, alone or in conjunction with one or more additional therapeutic agents. Subjects will receive 1 drop of 1%, 3%, or 5% D-Arg-2′,6′-Dmt-Lys-Phe-NH2 ophthalmic solution in a randomly selected study eye three times per day for 18 months. The remaining eye of these subjects serves as the untreated internal control. The patients in the control group will be administered 1 drop of vehicle solution in one of their eyes (fellow control eye) three times per day over the course of the 18 month study. Subjects are assessed weekly for signs and symptoms associated with DOA according to one or more criteria described herein (e.g., one or more of visual loss, optic nerve atrophy, palor of the neuroretianl rim, presence of temporal pigmentary grey cresent, thinning of the fiber layer at the optic nerve rim, papillary excavation, scotoma, changes in color vision, etc.).

Sequence of mu-opioid receptor (P35372 whole entry, species assumed): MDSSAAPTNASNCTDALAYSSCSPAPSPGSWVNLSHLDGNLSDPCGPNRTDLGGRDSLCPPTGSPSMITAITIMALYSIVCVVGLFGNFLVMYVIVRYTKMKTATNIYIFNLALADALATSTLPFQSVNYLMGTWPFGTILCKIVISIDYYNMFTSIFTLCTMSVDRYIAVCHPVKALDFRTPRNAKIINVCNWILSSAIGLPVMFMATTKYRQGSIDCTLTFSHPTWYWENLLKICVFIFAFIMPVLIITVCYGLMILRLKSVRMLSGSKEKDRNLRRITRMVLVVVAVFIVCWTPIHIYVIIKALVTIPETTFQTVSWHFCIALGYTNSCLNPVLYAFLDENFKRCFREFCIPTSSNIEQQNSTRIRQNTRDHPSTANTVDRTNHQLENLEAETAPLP

## 2′,6′-Dmt-D-Arg-Phe-Lys-NH2
[1]
  penetration of the plasma membrane: readily penetrates

## COC1=C(OC)C(=O)C(CCCCCCCCCCO)=C(C)C1=O [idebenone]
LHON patients [2]; one 11778/ND4 LHON patient, from about 20 degrees
  diameter of the central scotomas after treatment: less than 5 degrees
LHON patients [2]; seven LHON patients, about 450 mg/d
  recovery of visual acuity, color vision, and visual fields: showed recovery of visual acuity, color vision, and visual fields
LHON patients [3]
  final visual acuity vs placebo group: better final visual acuity than the placebo group
[4]; compared with coenzyme Q10
  delivery to mitochondria: higher delivery to mitochondria
  efficiency in crossing the blood-brain barrier: higher efficiency in crossing the blood-brain barrier

## N[C@@H](CCC(=O)N[C@@H](CS)C(=O)NCC(=O)O)C(=O)O [glutathione]
Reactive oxygen species
  protective effects in vitro: modest protective effects

## Tyr-D-Arg-Phe-Lys-NH2
mu-opioid receptor
  mu-opioid receptor agonist activity: has mu-opioid receptor agonist activity

## COC1=C(OC)C(=O)C(C/C=C(\C)CC/C=C(\C)CC/C=C(\C)CC/C=C(\C)CC/C=C(\C)CC/C=C(\C)CC/C=C(\C)CC/C=C(\C)CC/C=C(\C)CCC=C(C)C)=C(C)C1=O [coenzyme Q-10]
Reactive oxygen species
  protective effects in vitro: modest protective effects
[4]; exogenous
  delivery crossing lipid membranes to mitochondria: poor delivery

## D-Arg-2′,6′-dimethyltyrosine-Lys-Phe-NH2 [D-Arg-2′,6′-Dmt-Lys-Phe-NH2]
[5]
  onset and severity of the symptoms of DOA: prevent the onset of, delay the onset of, and/or reduce the severity of the symptoms of DOA
mu-opioid receptor
  mu-opioid receptor agonist activity: does not have mu-opioid receptor agonist activity

## Cc1c(C)c2c(c(C)c1O)CCC(C)(C(=O)O)O2 (centres unmarked) [Trolox]
Reactive oxygen species
  protective effects in vitro: modest protective effects

## F[dR]FK-NH2
mu-opioid receptor
  mu-opioid receptor agonist activity: does not have mu-opioid receptor agonist activity
